In US20180184661A1, “Improved Herbicidal Composition, Method and Use” (Arysta LifeScience Benelux Sprl, priority 2015, published 2018):

Assays:
Assay in all cases: Pre-emergence field trial in citrus, residual broadleaf weed control
Format in all cases: in vivo
[1] = test system: Sow thistle (Sonchus tenerrimus, SONTE); details: Spain, diuron 900 and/or oxyfluorfen 90 g a.i./ha, rated 15 to 90 days after application
Experimental: (§1) Field trials were conducted in citrus crops using standard herbicide small plot research methodology. Plots varied from 12 square meters (m^2) to 30 m^2 (2×15) with 3 to 4 replicates per treatment. The citrus crops were grown using normal cultural practices for the respective areas for the trials, using normal planting, fertilization, watering, flooding and maintenance for pests to ensure good growth of the crop and the weeds.
(§2) All treatments in the field trials were applied with a knapsack sprayer using compressed air as propellant. The sprayer was equipped with a boom and flat fan nozzles, and calibrated to apply homogeneously a spray volume of 200 to 400 litres/hectare at constant pressure.
(§3) Diuron in combination with oxyfluorfen, in the form of a ready for use formulation, was compared to a diuron formulation and an oxyfluorfen formulation, at dose rates of respectively […]., 900 g a.i./ha and 90 g a.i./ha.
(§4) Treatments were rated at different intervals from treatment to evaluation, from 15 to 120 days after application as compared to the untreated control plants. Assessment were done recording the percentage of ground covered by weeds and the visual efficacy on a scale of 0 to 100 percent where 0 corresponds to no weed control and 100 corresponds to complete weed control.
(§5) Trials were conducted under field conditions in Spain. Trial sites were located in commercially grown European citrus crop. The citrus trees were grown using normal cultural practices for fertilization, seeding and maintenance to ensure good growth of the crop and the weeds. The trials were conducted using normal research methodology. Plots varied from 12 square meters (m^2) to 30 m^2 (2×15) with 3 to 4 replicates per treatment. All treatment results are an average of 3 to 4 replicates. The trials had naturally occurring populations of weeds. The weed spectrum included, but was not limited to black nightshade (Solanum nigrum; SOLNI), Sow thistle (Sonchus tenerrimus, SONTE), fleabane (Conyza bonariensis, ERIBO), DIPER, hairy fleabane (Conyza bonariensis, ERIBO), redroot pigweed (Amaranthus retroflexus, AMA).
(§6) Treatments consisted applications of diuron+oxyfluorfen, diuron solo or oxyfluorfen solo. […] Colby's equation was used to determine the herbicidal effects expected from the mixtures (Colby, S. R. Calculation of the synergistic and antagonistic response of herbicide combinations. Weeds 1967, 15, 20-22.). The following equation was used to calculate the expected activity of mixtures containing two active ingredients, A and B:
(§7) A=observed efficacy of active ingredient A at the s e concentration as used in the mixture. B=observed efficacy of active ingredient B at the s e concentration as used in the mixture.
(§8) Ob=Observed visual weed control, Ex=Expected weed control as defined by Colby Equation

[2] = test system: Wall-rocket (Diplotaxis erucoides, DIPER); details: trial SRES14 061 230 HE, Spain, diuron 900 and/or oxyfluorfen 90 g a.i./ha, rated 15 to 90 days after application
Experimental: as §1, §2, §3, §4, §5, §6, §7, §8

[3] = test system: black nightshade (Solanum nigrum, SOLNI); details: trial SRES14 059 230 HE, Spain, diuron 900 and/or oxyfluorfen 90 g a.i./ha, rated 15 to 90 days after application
Experimental: as §1, §2, §3, §4, §5, §6, §7, §8

[4] = test system: fleabane (Conyza bonariensis, ERIBO); details: Spain, diuron 900 and/or oxyfluorfen 90 g a.i./ha, rated 15 to 90 days after application
Experimental: as §1, §2, §3, §4, §5, §6, §7, §8

[5] = test system: pigweed, redroot (Amaranthus retroflexus, AMARE); details: trial SRES14 061 230 HE, Spain, diuron 900 and/or oxyfluorfen 90 g a.i./ha, rated 15 to 90 days after application
Experimental: as §1, §2, §3, §4, §5, §6, §7, §8

SMILES	% Control SONTE Obs ([1]; trial SRES14 059 230 HE) [%]	% Control SONTE Obs ([1]; trial SRES14 060 230 HE) [%]	% Control DIPER Obs [2] [%]	% Control SOLNI Obs [3] [%]	% Control ERIBO Obs ([4]; trial SRES14 059 230 HE) [%]	% Control ERIBO Obs ([4]; trial SRES14 060 230 HE) [%]	% Control ERIBO Obs ([4]; trial SRES14 061 230 HE) [%]	% Control AMARE Obs [5] [%]
CCOc1cc(Oc2ccc(C(F)(F)F)cc2Cl)ccc1[N+](=O)[O-] [Oxyfluorfen, 2-chloro-1-(3-ethoxy-4-nitrophenoxy)-4-(trifluoromethyl)benzene]	28.8	10	20	47.5	35	47.5	43.8	45
CN(C)C(=O)Nc1ccc(Cl)c(Cl)c1 [Diuron, N′-(3,4-dichlorophenyl)-N,N-dimethylurea]	57.5	45	88.8	55	62.5	46.3	28.8	53.8
